Read-outs that look alike come from different tables or passages of the source.
Legend:
GluN1/GluN2A receptors = biological target: T1, GluN1/GluN2A receptors (Homo sapiens, UniProt Q05586+Q12879); assay: cell-based; details: for inhibition at 10 µM: HEK293, read-out: RI (%) ± SEM GluN1/GluN2A
T1 construct: expressed in transfected cells; host or cells: HEK293
Description: (§1) The cells grown in a 24-well plate were put in Opti-MEM I media containing a mixture of 0.9 µL of MATra-A Reagent (IBA) and 900 ng of DNA vectors carrying the human versions of the GluN1-1a (GluN1), GluN2A, or GluN2B subunits and green fluorescent protein (GFP; all vectors were added in equal ratio). The cells were placed on a strong magnet plate for 30 min and then trypsinized; resuspended in Opti-MEM I containing 1% FBS, 20-mM MgCl2, and 3-mM kynurenic acid (to inhibit the NMDAR-induced excitotoxicity); and plated on poly-L-lysine-coated glass coverslips. The electrophysiological experiments were executed 24–48 h after transfection.
(§2) Whole-cell patch-clamp recordings were conducted at room temperature on the GFP-positive HEK293 cells using an Axopatch 200B amplifier (Molecular Devices, San Jose, CA, USA); the series resistance compensation was >80% for all cells. […] The WAS02 application system, which can reach the solution exchange time around the recorded cell of 10–20 ms, was used to apply the extracellular solution (ECS).

GluN1/GluN2B receptors = biological target: T2, GluN1/GluN2B receptors (Homo sapiens, UniProt Q05586+Q13224); assay: cell-based; details: for inhibition at 10 µM: HEK293, read-out: RI (%) ± SEM GluN1/GluN2B
T2 construct: expressed in transfected cells; host or cells: HEK293
T2 sequence (Q13224 27-1484, other chains not shown): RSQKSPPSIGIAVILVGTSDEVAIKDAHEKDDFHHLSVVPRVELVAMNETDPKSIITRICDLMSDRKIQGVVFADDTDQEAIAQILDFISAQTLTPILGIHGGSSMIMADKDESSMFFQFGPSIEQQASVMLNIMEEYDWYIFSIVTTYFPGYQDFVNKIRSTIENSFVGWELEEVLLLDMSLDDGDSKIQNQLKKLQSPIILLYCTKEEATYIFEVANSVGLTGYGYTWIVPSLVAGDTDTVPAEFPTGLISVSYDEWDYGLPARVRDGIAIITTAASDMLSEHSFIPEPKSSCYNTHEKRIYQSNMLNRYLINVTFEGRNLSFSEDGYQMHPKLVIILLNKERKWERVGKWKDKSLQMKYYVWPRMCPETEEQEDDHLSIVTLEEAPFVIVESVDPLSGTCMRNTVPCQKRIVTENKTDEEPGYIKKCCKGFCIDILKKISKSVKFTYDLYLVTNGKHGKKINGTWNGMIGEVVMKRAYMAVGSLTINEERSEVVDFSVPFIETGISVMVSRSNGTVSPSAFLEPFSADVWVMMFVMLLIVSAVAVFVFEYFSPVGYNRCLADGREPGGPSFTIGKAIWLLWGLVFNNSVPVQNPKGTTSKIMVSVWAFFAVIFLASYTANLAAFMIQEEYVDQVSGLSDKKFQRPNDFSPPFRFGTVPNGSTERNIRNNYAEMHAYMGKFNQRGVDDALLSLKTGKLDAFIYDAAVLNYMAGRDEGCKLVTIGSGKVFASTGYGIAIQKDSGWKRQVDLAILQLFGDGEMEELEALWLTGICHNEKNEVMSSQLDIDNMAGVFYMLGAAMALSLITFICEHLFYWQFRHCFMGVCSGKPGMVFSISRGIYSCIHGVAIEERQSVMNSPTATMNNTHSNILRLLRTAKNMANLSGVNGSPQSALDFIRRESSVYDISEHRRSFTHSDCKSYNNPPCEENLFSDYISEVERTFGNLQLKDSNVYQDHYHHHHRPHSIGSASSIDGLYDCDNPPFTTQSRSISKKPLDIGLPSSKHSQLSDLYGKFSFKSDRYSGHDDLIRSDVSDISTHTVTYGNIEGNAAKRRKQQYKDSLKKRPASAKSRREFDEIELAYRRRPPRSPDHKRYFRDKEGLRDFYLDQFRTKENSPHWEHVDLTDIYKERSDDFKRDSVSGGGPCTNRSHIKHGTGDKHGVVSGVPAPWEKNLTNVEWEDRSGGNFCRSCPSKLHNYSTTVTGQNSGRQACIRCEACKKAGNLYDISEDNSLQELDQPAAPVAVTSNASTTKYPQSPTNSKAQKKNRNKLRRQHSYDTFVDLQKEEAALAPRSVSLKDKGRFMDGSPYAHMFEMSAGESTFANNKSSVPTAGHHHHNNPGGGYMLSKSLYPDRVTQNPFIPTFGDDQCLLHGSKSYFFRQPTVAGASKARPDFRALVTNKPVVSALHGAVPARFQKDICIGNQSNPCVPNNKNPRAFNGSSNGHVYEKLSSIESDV
Description: as §1, §2

[1] = MTT cell viability test, hCMEC/D3; type: cell-based; details: human, read-out: % viable cells hCMEC/D3
Description: Standard MTT assay (3-(4,5-dimethylthiazol-2-yl)-2,5-diphenyltetrazolium bromide; Sigma Aldrich, Prague, Czech Republic) was used according to the manufacturer’s protocols on the CHO-K1 (Chinese hamster ovary, ECACC, Salisbury, UK) and hCMEC/D3 (Sigma Aldrich, St. Louis, MO, USA). The cells were cultured according to recommended conditions and seeded in a density of 8000 cells per well, as described previously. […] CHO-K1 cells were exposed to serially diluted tested compounds for 24 h. Then, the medium was replaced by a fresh medium containing 0.5 mg/mL of MTT, and the cells were allowed to produce formazan for another approximately 3 h under surveillance. Thereafter, the medium with MTT was removed, and crystals of formazan were dissolved in DMSO (100 µL/well; PENTA s.r.o., Prague, Czech Republic). Cell viability was assessed spectrophotometrically by the amount of formazan produced. The absorbance was measured at 570 nm with a 650-nm reference wavelength on Synergy HT (BioTek, Winooski, VT, USA). […] Final IC50 and SEM (standard error of the mean) values were obtained as a mean of three independent measurements.

hCMEC/D3 cell monolayer = assay: in vitro; details: for potential of BBB permeation (in words): Papp correlated to reference drugs
Description: (§3) The D3 assay evaluates the ability of compounds to diffuse from the donor compartment through the D3/hCMEC cell membrane into the acceptor compartment. The D3 cells were seeded on a PET membrane (area 1.12 cm^2) with 3-µm pores of the 12-well plates with 12-mm inserts. […] The donor solution (750 µL) was added to the donor compartment (insert), and the same volume of Opti-MEM was added into the acceptor. The concentration of the drug in both compartments was measured by UV-VIS spectrophotometry in 5, 15, 30, and 60 min of incubation in triplicates. The apparent permeability coefficient (Papp) was calculated from the concentration ratios. Tightness of the D3 monolayer was conducted by the fluorescein isothiocyanate (FITC) test after each experiment. […] (1) Papp= dC/dt × Vr/A × C0 • A: area of the well/cell monolayer, • dC/dt: amount in the receiver compartment in given time, • Vr: volume of the receiver compartment, and • C0: the initial concentration of tested compounds.

in vitro = details: human
Description: as §3

[2] = MTT cell viability assay, CHO-K1; type: cell-based; details: Chinese hamster, CHO-K1 cells, 24 h exposure, mean of three independent measurements, read-out: IC50 ± SEM CHO-K1 cell viability
Description: Standard MTT assay (3-(4,5-dimethylthiazol-2-yl)-2,5-diphenyltetrazolium bromide; Sigma Aldrich, Prague, Czech Republic) was used according to the manufacturer’s protocols on the CHO-K1 (Chinese hamster ovary, ECACC, Salisbury, UK) and hCMEC/D3 (Sigma Aldrich, St. Louis, MO, USA). The cells were cultured according to recommended conditions and seeded in a density of 8000 cells per well, as described previously. […] CHO-K1 cells were exposed to serially diluted tested compounds for 24 h. Then, the medium was replaced by a fresh medium containing 0.5 mg/mL of MTT, and the cells were allowed to produce formazan for another approximately 3 h under surveillance. Thereafter, the medium with MTT was removed, and crystals of formazan were dissolved in DMSO (100 µL/well; PENTA s.r.o., Prague, Czech Republic). Cell viability was assessed spectrophotometrically by the amount of formazan produced. The absorbance was measured at 570 nm with a 650-nm reference wavelength on Synergy HT (BioTek, Winooski, VT, USA). The IC50 value (half-maximal inhibitory concentration) was calculated from the control-subtracted triplicates using nonlinear regression (four parameters) by GraphPad Prism 7.03 software (GraphPad Software Inc., San Diego, CA, USA) for the CHO-K1 cell line, and for hCMEC/D3 cells, the cell viability was expressed as the % relative to the untreated control. Final IC50 and SEM (standard error of the mean) values were obtained as a mean of three independent measurements.

hBChE [3] = biological target: T3, hBChE (Homo sapiens, UniProt P06276); assay: biochemical; type: biochemical; details: for IC50: mean of at least three experiments, read-out: IC50 ± SEM hBChE
T3 construct: made in house
T3 sequence (P06276 29-602): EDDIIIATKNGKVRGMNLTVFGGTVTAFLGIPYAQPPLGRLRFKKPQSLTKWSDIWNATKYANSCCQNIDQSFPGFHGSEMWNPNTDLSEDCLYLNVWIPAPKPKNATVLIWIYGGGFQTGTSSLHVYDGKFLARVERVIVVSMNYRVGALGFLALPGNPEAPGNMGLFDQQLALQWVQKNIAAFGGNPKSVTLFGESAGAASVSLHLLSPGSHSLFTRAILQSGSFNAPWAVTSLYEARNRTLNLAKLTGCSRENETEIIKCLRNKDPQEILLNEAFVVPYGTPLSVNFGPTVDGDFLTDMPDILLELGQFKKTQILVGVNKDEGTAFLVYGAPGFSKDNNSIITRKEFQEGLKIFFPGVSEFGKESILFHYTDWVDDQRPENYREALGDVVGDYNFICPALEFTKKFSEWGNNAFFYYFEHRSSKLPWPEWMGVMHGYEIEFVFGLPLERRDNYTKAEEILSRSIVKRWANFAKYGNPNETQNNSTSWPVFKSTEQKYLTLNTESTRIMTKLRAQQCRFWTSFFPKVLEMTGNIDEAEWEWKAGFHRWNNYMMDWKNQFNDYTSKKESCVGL
Description: The human recombinant BChE and AChE were prepared at the Department of Toxicology and Military Pharmacy (Faculty of Military Health Sciences, Hradec Kralove, Czech Republic). 5,5′-dithiobis(2-nitrobenzoic acid) (Ellman’s reagent, DTNB), phosphate buffer (PB, pH 7.4), acetylthiocholine (ATC), and butyrylthiocholine (BTC) were purchased from Sigma-Aldrich, Prague, Czech Republic. For measuring purposes, polystyrene Nunc 96-well microplates with a flat bottom shape (Thermo Fisher Scientific, Waltham, MA, USA) were utilized. All the assays were carried out in 0.1-M KH2PO4/K2HPO4 buffer, pH 7.4. Enzyme solutions were prepared at 2.0 units/mL in 2-mL aliquots. […] Tested compounds were preincubated for 5 min. The reaction was started by the immediate addition of 20 µL of the substrate. […] Each concentration was assayed in triplicate. Software GraphPad Prism 5 (San Diego, CA, USA) was used for the statistical data evaluation.

hBChE [4] = biological target: T3, hBChE; assay: Kinetic study of hBChE inhibition; type: biochemical
Description: The kinetic study of hBChE was performed by using the above-mentioned modified Ellman’s method. The values of Vmax and Km of the Michaelis-Menten kinetics, as well as the value of Ki, were calculated by nonlinear regression from the substrate velocity curves. Linear regression was used for calculation of the Cornish-Bowden plots. All calculations were performed using GraphPad Prism software version 6.07 for Windows (San Diego, CA, USA).

NMDA receptor = details: read-out: IC50 inhibition of NMDA receptor responses; at −60 mV; cited from earlier work
[5] = final prediction from Papp correlated to reference drugs
[6] = 40 mV, read-out: IC50 40 mV GluN1/GluN2A
[7] = −60 mV, read-out: IC50 −60 mV GluN1/GluN2A
[8] = 40 mV, read-out: IC50 40 mV GluN1/GluN2B
[9] = −60 mV, read-out: IC50 −60 mV GluN1/GluN2B

T1 sequence (Q12879 23-1464, other chains not shown): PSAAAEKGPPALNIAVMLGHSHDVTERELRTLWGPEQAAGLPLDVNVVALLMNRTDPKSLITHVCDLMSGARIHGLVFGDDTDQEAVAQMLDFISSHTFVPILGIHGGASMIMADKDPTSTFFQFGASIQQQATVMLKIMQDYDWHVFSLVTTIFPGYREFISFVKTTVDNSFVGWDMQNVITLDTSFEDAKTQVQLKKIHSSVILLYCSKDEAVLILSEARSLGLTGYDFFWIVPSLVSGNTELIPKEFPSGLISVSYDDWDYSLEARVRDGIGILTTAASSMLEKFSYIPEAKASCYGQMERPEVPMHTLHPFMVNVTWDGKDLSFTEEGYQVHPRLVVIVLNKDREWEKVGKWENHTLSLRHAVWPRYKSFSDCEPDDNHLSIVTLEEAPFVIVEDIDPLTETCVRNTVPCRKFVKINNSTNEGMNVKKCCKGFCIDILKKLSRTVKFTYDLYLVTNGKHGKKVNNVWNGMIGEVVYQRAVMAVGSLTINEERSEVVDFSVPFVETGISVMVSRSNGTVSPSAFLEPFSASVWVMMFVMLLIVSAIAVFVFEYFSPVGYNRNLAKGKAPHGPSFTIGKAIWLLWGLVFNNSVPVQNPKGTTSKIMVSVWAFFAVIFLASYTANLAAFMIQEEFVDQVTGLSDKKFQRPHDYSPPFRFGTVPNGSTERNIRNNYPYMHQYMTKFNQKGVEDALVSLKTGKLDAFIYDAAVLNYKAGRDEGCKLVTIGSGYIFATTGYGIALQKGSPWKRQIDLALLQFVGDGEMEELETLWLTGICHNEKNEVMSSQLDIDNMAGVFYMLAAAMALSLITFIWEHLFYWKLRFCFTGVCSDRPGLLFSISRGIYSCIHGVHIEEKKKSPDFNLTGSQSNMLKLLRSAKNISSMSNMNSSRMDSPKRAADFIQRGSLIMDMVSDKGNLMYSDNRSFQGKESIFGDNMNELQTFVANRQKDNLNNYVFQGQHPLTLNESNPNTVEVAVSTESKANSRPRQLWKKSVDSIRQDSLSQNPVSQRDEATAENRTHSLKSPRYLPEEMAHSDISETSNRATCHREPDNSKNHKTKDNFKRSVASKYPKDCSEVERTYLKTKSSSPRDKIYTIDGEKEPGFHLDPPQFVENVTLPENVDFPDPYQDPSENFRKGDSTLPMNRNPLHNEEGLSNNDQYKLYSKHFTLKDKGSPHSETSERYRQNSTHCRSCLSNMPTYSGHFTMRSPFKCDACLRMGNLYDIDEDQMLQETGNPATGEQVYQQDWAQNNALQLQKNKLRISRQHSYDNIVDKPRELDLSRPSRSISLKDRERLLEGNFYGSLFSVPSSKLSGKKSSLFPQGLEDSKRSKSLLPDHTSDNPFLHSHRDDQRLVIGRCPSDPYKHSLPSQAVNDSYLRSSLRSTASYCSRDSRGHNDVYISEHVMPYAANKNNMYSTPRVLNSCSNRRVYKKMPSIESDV

Molecule `Cl.c1ccc2c(c1)-c1ccccc1C2NC1CCCCC1` [Compound 3c, N-Cyclohexyl-9H-fluoren-9-amine hydrochloride] has an inhibition at 10 µM (GluN1/GluN2A receptors) of 41 ± 3.56%, an inhibition at 10 µM (GluN1/GluN2B receptors) of 17.2 ± 2.39% and a viability at 50 µM ([1]; hCMEC/D3 cells) of 93.4%. The viability at 100 µM ([1]; hCMEC/D3 cells) was 82.9%, the “potential of BBB permeation (in words)” value (hCMEC/D3 cell monolayer) was “low potential to passively pass the BBB” and the “CNS (+/−)” value (hCMEC/D3 cell monolayer; [5]) was “CNS −”. For the same molecule, the Papp (in vitro) was 12.3 ± 2.33 ×10⁻⁶ cm/s, the IC50 at 24 h [2] was 111 ± 10 µM and the “times less active compared to THA (hBChE inhibition)” value (hBChE [3]) was 20. The IC50 (hBChE [3]) was 0.47 ± 0.01 µM, the Ki (hBChE [4]; nonlinear regression, substrate butyrylthiocholine) was 0.173 ± 0.025 µM and the type of inhibition (hBChE [4]; sum-of-squares F-test, Cornish–Bowden plot) was “competitive inhibition”.

In the case of `Cl.c1ccc2c(c1)-c1ccccc1C2NC1CCC1` [Compound 3e, N-Cyclobutyl-9H-fluoren-9-amine hydrochloride], the “h 40 mV GluN1/GluN2A (Hill coefficient)” value (GluN1/GluN2A receptors; 40 mV) is reported as 1.28 ± 0.12, the IC50 (GluN1/GluN2A receptors; [6]) is reported as 82.6 ± 14.2 µM and the inhibition at 10 µM (GluN1/GluN2A receptors) is reported as 52.3 ± 4.18%. For the same molecule, the “h −60 mV GluN1/GluN2A (Hill coefficient)” value (GluN1/GluN2A receptors; −60 mV) was 1.07 ± 0.05, the IC50 (GluN1/GluN2A receptors; [7]) was 8.85 ± 1.21 µM and the “h 40 mV GluN1/GluN2B (Hill coefficient)” value (GluN1/GluN2B receptors; 40 mV) was 1.10 ± 0.08. For the same molecule, the IC50 (GluN1/GluN2B receptors; [8]) was 156 ± 14.9 µM, the inhibition at 10 µM (GluN1/GluN2B receptors) was 44.8 ± 3.43% and the “h −60 mV GluN1/GluN2B (Hill coefficient)” value (GluN1/GluN2B receptors; −60 mV) was 1.17 ± 0.05. The IC50 (GluN1/GluN2B receptors; [9]) was 15.3 ± 2.38 µM, the viability at 50 µM ([1]; hCMEC/D3 cells) was 92.8% and the viability at 100 µM ([1]; hCMEC/D3 cells) was 92.3%. For the same molecule, the “potential of BBB permeation (in words)” value (hCMEC/D3 cell monolayer) was “low potential to passively pass the BBB”, the “CNS (+/−)” value (hCMEC/D3 cell monolayer; [5]) was “CNS −” and the Papp (in vitro) was 13.5 ± 1.54 ×10⁻⁶ cm/s. It also gave an IC50 at 24 h [2] of 192 ± 3 µM and an IC50 (hBChE [3]) of 2.03 ± 0.08 µM.

With `CCCCNC1c2ccccc2-c2ccccc21.Cl` [Compound 3m, N-Butyl-9H-fluoren-9-amine hydrochloride] the “h 40 mV GluN1/GluN2A (Hill coefficient)” value (GluN1/GluN2A receptors; 40 mV) was 1.23 ± 0.13, the IC50 (GluN1/GluN2A receptors; [6]) was 114 ± 26.6 µM and the inhibition at 10 µM (GluN1/GluN2A receptors) was 36.2 ± 3.73%. For the same molecule, the “h −60 mV GluN1/GluN2A (Hill coefficient)” value (GluN1/GluN2A receptors; −60 mV) was 1.19 ± 0.14, the IC50 (GluN1/GluN2A receptors; [7]) was 14.2 ± 1.6 µM and the “h 40 mV GluN1/GluN2B (Hill coefficient)” value (GluN1/GluN2B receptors; 40 mV) was 0.97 ± 0.10. The IC50 (GluN1/GluN2B receptors; [8]) was 221 ± 12.2 µM, the inhibition at 10 µM (GluN1/GluN2B receptors) was 51.2 ± 3.24% and the “h −60 mV GluN1/GluN2B (Hill coefficient)” value (GluN1/GluN2B receptors; −60 mV) was 1.12 ± 0.05. For the same molecule, the IC50 (GluN1/GluN2B receptors; [9]) was 11.7 ± 1.72 µM, the viability at 50 µM ([1]; hCMEC/D3 cells) was 82.1% and the viability at 100 µM ([1]; hCMEC/D3 cells) was 80.1%. The “potential of BBB permeation (in words)” value (hCMEC/D3 cell monolayer) was “corresponds to those of standard drugs with high CNS permeability”, the “CNS (+/−)” value (hCMEC/D3 cell monolayer; [5]) was “CNS +” and the Papp (in vitro) was 18.5 ± 2.37 ×10⁻⁶ cm/s. For the same molecule, the IC50 at 24 h [2] was 140 ± 15 µM and the IC50 (hBChE [3]) was 1.02 ± 0.03 µM.

`CC(C)CNC1c2ccccc2-c2ccccc21.Cl` [Compound 3n, N-(2-methylpropyl)-9H-fluoren-9-amine hydrochloride] showed an inhibition at 10 µM (GluN1/GluN2A receptors) of 37.9 ± 2.43%, an inhibition at 10 µM (GluN1/GluN2B receptors) of 49.7 ± 1.72% and a viability at 50 µM ([1]; hCMEC/D3 cells) of 98.2%. The viability at 100 µM ([1]; hCMEC/D3 cells) was 92.7%, the “potential of BBB permeation (in words)” value (hCMEC/D3 cell monolayer) was “low potential to passively pass the BBB” and the “CNS (+/−)” value (hCMEC/D3 cell monolayer; [5]) was “CNS −”. The Papp (in vitro) was 14.6 ± 1.88 ×10⁻⁶ cm/s and the IC50 at 24 h [2] was 236 ± 24 µM.

In the case of `Nc1c2c(nc3ccccc13)CCCC2` [THA, Tacrine, reference compound], the viability at 50 µM [1] is reported as 91.1%, the viability at 100 µM [1] is reported as 94.5% and the “CNS (+/−)” value (hCMEC/D3 cell monolayer) is reported as “CNS +”. The Papp (in vitro) was 22.3 ± 2.01 ×10⁻⁶ cm/s and the IC50 (NMDA receptor) was 20 µM.

Reference: article PMC7822176, “Pursuing the Complexity of Alzheimer’s Disease: Discovery of Fluoren-9-Amines as Selective Butyrylcholinesterase Inhibitors and N-Methyl-D-Aspartate Receptor Antagonists” (Biomolecules, 2020)
